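The compound was tested at five concentrations on cells cultured in 96-well plates, with a 48-hour exposure period. GI50: concentration for 50% inhibition of growth.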 Active and inactive are the calls of the source. No stated cut-off is given here; in the data, active = GI50 up to about 1.1 µM and inactive = higher.
Legend:
Test in all cases: NCI tumour cell line growth inhibition, 48 h
786-0 = system: 786-0
A498 = system: A498
EKVX = system: EKVX
HCC 2998 = system: HCC 2998
HOP-62 = system: HOP-62
KM12 = system: KM12
LOX IMVI = system: LOX IMVI
M14 = system: M14
MDA-MB-231 = system: MDA-MB-231
NCI-H522 = system: NCI-H522
OVCAR-4 = system: OVCAR-4
RXF 393 = system: RXF 393
SF-295 = system: SF-295
SK-MEL-2 = system: SK-MEL-2
SNB-19 = system: SNB-19
SR = system: SR
SW-620 = system: SW-620
T47D = system: T47D
U-251 = system: U-251
HOP-92 = system: HOP-92

Measured: GI50

O=Cc1ccc(OCc2cccc(COc3ccc(/C=N\Nc4ccc([N+](=O)[O-])cc4[N+](=O)[O-])cc3)n2)cc1
inactive: 786-0 > 100 µM | A498 > 100 µM | EKVX > 100 µM | HCC 2998 > 100 µM | HOP-62 19.6 µM | KM12 > 100 µM | LOX IMVI > 100 µM | M14 > 100 µM | MDA-MB-231 43.6 µM | NCI-H522 > 100 µM | OVCAR-4 > 100 µM | RXF 393 43.2 µM | SF-295 > 100 µM | SK-MEL-2 89.5 µM | SNB-19 > 100 µM | SR 22.1 µM | SW-620 > 100 µM | T47D > 100 µM | U-251 63.5 µM

O=C(/C=C/c1ccc(O)cc1)c1cc(-c2cc(CCC(=O)c3ccc(O)cc3O)ccc2O)c(O)cc1O
inactive: 786-0 25.6 µM | A498 24.8 µM | EKVX > 50 µM | HOP-62 27.4 µM | HOP-92 15.2 µM | KM12 19.8 µM | LOX IMVI 19.5 µM | M14 41.6 µM | MDA-MB-231 37.8 µM | NCI-H522 22.3 µM | OVCAR-4 19.7 µM | RXF 393 41.5 µM | SF-295 22.3 µM | SK-MEL-2 33.7 µM | SNB-19 26.8 µM | SR 10.4 µM | SW-620 29.9 µM | T47D 30.6 µM | U-251 17.5 µM

NNC(=O)C1(NC(=O)c2ccccc2)C(c2ccccc2)C(c2ccccc2)=NN1c1ccccc1 (stereo not drawn)
inactive: 786-0 50.5 µM | A498 > 100 µM | EKVX 42.3 µM | HCC 2998 57.1 µM | HOP-62 34 µM | KM12 35.1 µM | LOX IMVI 23.8 µM | M14 22.8 µM | MDA-MB-231 66.8 µM | NCI-H522 55.3 µM | OVCAR-4 12.8 µM | RXF 393 14.5 µM | SF-295 24.5 µM | SK-MEL-2 41.5 µM | SNB-19 66.2 µM | SR 18.2 µM | SW-620 46.6 µM | T47D 23.1 µM | U-251 62.1 µM

c1ccc(NNC2=NCCN2)cc1
inactive: 786-0 > 100 µM | A498 > 100 µM | EKVX > 100 µM | HOP-62 > 100 µM | KM12 > 100 µM | LOX IMVI > 100 µM | M14 > 100 µM | MDA-MB-231 > 100 µM | NCI-H522 > 100 µM | OVCAR-4 > 100 µM | SF-295 2.75 µM | SK-MEL-2 > 100 µM | SNB-19 > 100 µM | SR > 100 µM | SW-620 > 100 µM | T47D > 100 µM | U-251 > 100 µM

CC[C@]12C=CCN3CC[C@@]4(c5cc(Br)c(OC)cc5N(C)[C@H]4[C@@](O)(C(=O)N[C@@H](Cc4ccc(O)cc4)C(=O)OC)[C@@H]1O)[C@@H]32
inactive: 786-0 49.9 µM | A498 18.1 µM | EKVX 29.2 µM | HCC 2998 25.5 µM | HOP-62 46.5 µM | KM12 11.3 µM | LOX IMVI 14.8 µM | M14 28 µM | MDA-MB-231 11 µM | NCI-H522 17.7 µM | OVCAR-4 14.7 µM | RXF 393 17.6 µM | SF-295 19.3 µM | SK-MEL-2 20.1 µM | SNB-19 > 100 µM | SR 13.8 µM | SW-620 32.9 µM | T47D 57.7 µM | U-251 14.6 µM

CCOC(=O)c1nc2ccc(C(F)(F)F)cc2nc1NCc1ccc(F)cc1
inactive: 786-0 30.1 µM | EKVX 37.8 µM | HCC 2998 24.8 µM | HOP-62 47.3 µM | HOP-92 4.83 µM | KM12 58.7 µM | LOX IMVI 26.1 µM | M14 48.6 µM | MDA-MB-231 32.1 µM | NCI-H522 18.1 µM | OVCAR-4 12 µM | RXF 393 37.2 µM | SF-295 75.5 µM | SK-MEL-2 59.4 µM | SNB-19 32.6 µM | SR 37.8 µM | SW-620 34.1 µM | T47D 17.1 µM | U-251 35.7 µM

O=C(O)c1nc2ccc(C(F)(F)F)cc2nc1NCc1ccc(Cl)c(Cl)c1
inactive: 786-0 15.9 µM | A498 17.5 µM | EKVX 15.8 µM | HCC 2998 16.4 µM | HOP-62 14.8 µM | HOP-92 15.7 µM | KM12 16.3 µM | LOX IMVI 15.1 µM | M14 17.8 µM | MDA-MB-231 16.8 µM | OVCAR-4 18.5 µM | SF-295 17.4 µM | SK-MEL-2 12.5 µM | SNB-19 12.6 µM | SR 15.6 µM | SW-620 19.4 µM | T47D 16.6 µM | U-251 13.8 µM

O=C(c1ccccc1)N1CCN(C(=S)NC2CCCCC2)C1=S
inactive: 786-0 21.8 µM | A498 19 µM | EKVX 16.1 µM | HCC 2998 16.4 µM | HOP-62 18 µM | HOP-92 15.5 µM | KM12 16 µM | LOX IMVI 16 µM | M14 16.8 µM | MDA-MB-231 7.03 µM | NCI-H522 15.8 µM | OVCAR-4 18.9 µM | SF-295 20.9 µM | SK-MEL-2 4.58 µM | SR 28.5 µM | SW-620 21.6 µM | T47D 15.8 µM | U-251 9.89 µM

— ChEMBL document CHEMBL1201862, “PubChem BioAssay data set” (2004)
